The text below walks through data of patent publication US10208074B2, “Pyrazole compounds and method for making and using the compounds” (Rigel Pharmaceuticals, Inc., priority 2015, dated 2019).

Structures are written as SMILES. Counter-ions that a name gives are not always drawn. Like-named read-outs stand apart in the source and are kept apart here.

Test [1] concerns IL-23p19. The test can be described thus: LPS induced IL23p19 in THP-1 cells (with IFNγ primed) assay. The test is classed as cell-based, Human. The following applies: THP-1 cells, IFNγ primed, LPS 1 ug/mL, 18 hours, 10 pt, read-out: IL23-p19 ELISA, THP1-IFNy, LPS, 10 pt EC50. The essentials:
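THP-1 cells primed ~18 h with IFNγ (50 ng/mL), pre-incubated 1 h with compound at 37 °C, then stimulated 18 h with LPS (1 ug/mL final). Supernatant IL-23p19 measured by sandwich ELISA with chemiluminescent read-out; EC50 from curve fitting. Toxicity checked on the remaining cells by Cell Titer Glo.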
(In general: An ELISA detects its analyte on a solid surface through an enzyme-linked reagent.)

In test [2] the test system is IL-23 (p19/p40). The test can be described thus: IL23-p19 ELISA, Dendritic, LPS (compound screening using DC cells). Type of test: cell-based, Human. Conditions: PBMC-derived DC cells, IFNγ primed, LPS 1 μg/ml, 18 hours, 10 pt, read-out: IL23-p19 ELISA, Dendritic, LPS, 10 pt, EC50. How it is done:
Compound Screening Using DC Cells
Human PBMC cells (400 million) obtained from the vendor were transferred into a T-175 flask containing 15 ml RPMI media (10% FBS) and incubate for 2 hours at 37° C. After 2 hours, the media including floating cells was aspirated out carefully and 12 ml of fresh RPMI media (10% FBS) containing GMCSF (100 ng/ml) and IL4 (20 ng/ml) was added, and the flask was kept in a 37° C. incubator for 7 days.
After 3 days, fresh GMCSF (100 ng/ml) and IL4 (20 ng/ml) were added to the flask and the incubation continued. After 7 days, the fully differentiated cells were harvested by spinning down (1200 rpm/5 min) and aspirating the media. The cells were suspended in fresh RPMI media (10% FBS) containing 50 ng/ml IFNγ (1000 U/ml) and then plated (50K/well in 100 μl) onto a white clear bottom 96 well plate and left in a 37° C. incubator for 24 hours.
After 24 hours incubation, 100 μl of RPMI media was added containing 2× concentrated test compound per well to the above cell-culture media (final concentration becomes 1×) and the plates were pre-incubated for 1 hour at 37° C. before stimulating with LPS.
After 1 hour compound pre-incubation, 10 piper well of 20× concentrated LPS solution in RPMI media was added to give a final concentration of 1 μg/ml. The mixture was shaken and incubated the plates at 37° C. for an additional 18 hours.
155 μl of the supernatant was harvested from each well carefully (without the tip touching the bottom of the well) and to the remaining 50 μl/well of the cell culture plate was added 50 μl of Cell Titer Glo reagent. The mixture was incubated for 1-2 minutes on a shaker and the plate was read for luminescence intensity to determine the compound cytotoxicity. The cell culture supernatant collected above was used to carry out IL23 ELISA (65 μl -Supernatant) and IL10 ELISA (90 μl—Supernatant) as described below.
Human IL-23 (p19/p40) ELISA Protocol (e-Biosciences)
To 10.5 ml PBS add 50 μl of anti-IL23 (p19) was added capture antibody (2.5 μg/ml). The mixture was mixed well and 100 μl of the coating solution was added to each well of the 96 well white plates from Pierce. The wells were covered and incubated overnight at 4° C.
The anti-IL23 (p19)-antibody-coated plates were washed 2× using TBST (use plate washer) and blocked using 200 μl of 0.5% Casein for 1.5-2 hours at room temperature with shaking.
The plates were washed 2× using TBST and the supernatant was transferred (65 μl/well) to the above pre-blocked/IL23(p19)-antibody-coated 96 well plate, and incubated at room temperature for 1.5 hours with shaking.
The plates were washed 4× using TBST (plate washer) and 100 μl/well detection antibody solution prepared from 2 μl of biotin labeled anti-IL-12 (p40/p70) antibody in 11 ml 1% BSA/PBS solution (1-5000 dilution) was added. The plates were incubated for 1 hour with shaking at Room temperature.
Again, the plates were washed 4× with TBST and 100 μl of HRP labeled Streptavidin (R&D Systems) solution (10 μl/10 ml 1% BSA solution) was added, and the plates were incubated at room temperature for another 45 minutes with shaking.
After 45 minutes, the plates were washed with TBST 4× and 100 ul/well Super Signal ELISA Pico Chemiluminescent Substrate from Pierce (3.5 ml A+3.5 ml B+3.5 ml MQ water) was added. The plates were shaken for 1-2 minutes then read on a plate reader.

Turning to `CCO[C@H]1C[C@@H](n2cc(NC(=O)c3ccc(-c4cn[nH]c4)o3)c(-c3nc(F)ccc3F)n2)C1` [Compound I-156, N-(3-(3,6-difluoropyridin-2-yl)-1-((1s,3s)-3-ethoxycyclobutyl)-1H-pyrazol-4-yl)-5-(1H-pyrazol-4-yl)furan-2-carboxamide], the EC50 (usually the concentration needed to bring the measured effect to its halfway point) in test [1] (Homo sapiens, THP-1, 18 h) stood at 59.5 nM; in test [2] (Homo sapiens, 18 h), 105 nM.
For the compound `O=C(Nc1cn(C2CCC3(CC2)OCCO3)nc1-c1ncccc1F)c1csc(-c2cn[nH]c2)n1` [II-140, N-(3-(3-fluoropyridin-2-yl)-1-(1,4-dioxaspiro[4.5]decan-8-yl)-1H-pyrazol-4-yl)-2-(1H-pyrazol-4-yl)thiazole-4-carboxamide], the EC50 was found to be 30.8 nM in test [1] (Homo sapiens, THP-1, 18 h) and 32.3 nM in test [2] (Homo sapiens, 18 h).
With `CCO[C@H]1C[C@@H](n2cc(NC(=O)c3ccc(-c4cn[nH]c4)o3)c(-c3ccccn3)n2)C1` [Compound I-28, N-(1-((1,3-cis)-3-ethoxycyclobutyl)-3-(pyridin-2-yl)-1H-pyrazol-4-yl)-5-(1H-pyrazol-4-yl)furan-2-carboxamide], the EC50 was 49.7 nM in test [1] (Homo sapiens, THP-1, 18 h) and 21.8 nM in test [2] (Homo sapiens, 18 h).
Take `O=C(Nc1cn(C2COC2)nc1-c1ccccn1)c1csc(-c2cn[nH]c2)n1` [II-34, N-(1-(oxetan-3-yl)-3-(pyridin-2-yl)-1H-pyrazol-4-yl)-2-(1H-pyrazol-4-yl)thiazole-4-carboxamide]: the concentration giving a half-maximal response (EC50) in test [1] (Homo sapiens, THP-1, 18 h) came out at 86.1 nM; in test [2] (Homo sapiens, 18 h), 55.7 nM.
As to `O=C(Nc1cn([C@H]2C[C@@H](O)C2)nc1-c1ccccn1)c1ccc(-c2cn[nH]c2)o1` [Compound I-32, N-(1-((1,3-cis)-3-hydroxycyclobutyl)-3-(pyridin-2-yl)-1H-pyrazol-4-yl)-5-(1H-pyrazol-4-yl)furan-2-carboxamide], the EC50 amounted to 28.8 nM in test [1] (Homo sapiens, THP-1, 18 h) and 83 nM in test [2] (Homo sapiens, 18 h).
Turning to `O=C(Nc1cn(C2CCOC2)nc1-c1nccs1)c1csc(-c2cn[nH]c2)n1` (stereo not drawn) [II-115, 2-(1H-pyrazol-4-yl)-N-(1-(tetrahydrofuran-3-yl)-3-(thiazol-2-yl)-1H-pyrazol-4-yl)thiazole-4-carboxamide], the EC50 in test [1] (Homo sapiens, THP-1, 18 h) worked out at 43.8 nM; in test [2] (Homo sapiens, 18 h), 159 nM.
`CCO[C@H]1C[C@@H](n2cc(NC(=O)c3ccc(-c4cnn(C)c4)o3)c(-c3ccccn3)n2)C1` [Compound I-31, N-(1-((1,3-cis)-3-ethoxycyclobutyl)-3-(pyridin-2-yl)-1H-pyrazol-4-yl)-5-(1-methyl-1H-pyrazol-4-yl)furan-2-carboxamide]: the EC50 stood at 6290 nM in test [1] (Homo sapiens, THP-1, 18 h) and 1250 nM in test [2] (Homo sapiens, 18 h).
In the case of `CCO[C@H]1C[C@@H](n2cc(NC(=O)c3csc(-c4cnn(COP(=O)(O)O)c4)n3)c(-c3ccccn3)n2)C1` [II-81, (4-(4-((1-((1,3-cis)-3-ethoxycyclobutyl)-3-(pyridin-2-yl)-1H-pyrazol-4-yl)carbamoyl)thiazol-2-yl)-1H-pyrazol-1-yl)methyl phosphate bis-lysine salt], the results for the half-maximal effective concentration (EC50) in test [1] and in test [2] were 19 nM and 171 nM, respectively.
In the case of `COCCOCCn1cc(NC(=O)c2csc(-c3cn[nH]c3)n2)c(-c2ccccn2)n1` [II-37, N-(1-(2-(2-methoxyethoxy)ethyl)-3-(pyridin-2-yl)-1H-pyrazol-4-yl)-2-(1H-pyrazol-4-yl)thiazole-4-carboxamide], the EC50 in test [1] (Homo sapiens, THP-1, 18 h) was 129 nM; in test [2] (Homo sapiens, 18 h) it was 193 nM.
For `CCO[C@H]1C[C@@H](n2cc(NC(=O)c3csc(-c4cn[nH]c4)n3)c(-c3ncccc3C(F)(F)F)n2)C1` [II-89, N-(1-((1,3-cis)-3-ethoxycyclobutyl)-3-(3-(trifluoromethyl)pyridin-2-yl)-1H-pyrazol-4-yl)-2-(1H-pyrazol-4-yl)thiazole-4-carboxamide] the same measures were 589 nM and 1130 nM.
The matching figures for `O=C(Nc1cn([C@H]2CC[C@@H](O)C2)nc1-c1ccccn1)c1ccc(-c2cn[nH]c2)o1` [Compound I-134, N-(1-((1S,3R)-3-hydroxycyclopentyl)-3-(pyridin-2-yl)-1H-pyrazol-4-yl)-5-(1H-pyrazol-4-yl)furan-2-carboxamide formate]: 29.6 nM and 91 nM.
With `O=C(Nc1cn(C2CCOCC2)nc1-c1nccs1)c1ccc(-c2cn[nH]c2)o1` [Compound I-65, 5-(1H-pyrazol-4-yl)-N-(1-(tetrahydro-2H-pyran-4-yl)-3-(thiazol-2-yl)-1H-pyrazol-4-yl)furan-2-carboxamide], the EC50 amounted to 54.3 nM in test [1] and 199 nM in test [2].
Regarding `O=C(Nc1cn([C@H]2C[C@@H](O)C2)nc1-c1cnccn1)c1csc(-c2cn[nH]c2)n1` [II-101, N-(1-((1,3-cis)-3-hydroxycyclobutyl)-3-(pyrazin-2-yl)-1H-pyrazol-4-yl)-2-(1H-pyrazol-4-yl)thiazole-4-carboxamide], the EC50 worked out at 23 nM in test [1] (Homo sapiens, THP-1, 18 h) and 35.5 nM in test [2] (Homo sapiens, 18 h).
For `CC(C)(O)Cn1cc(NC(=O)c2csc(-c3cn[nH]c3)n2)c(-c2ccccn2)n1` [II-1, N-(1-(2-hydroxy-2-methylpropyl)-3-(pyridin-2-yl)-1H-pyrazol-4-yl)-2-(1H-pyrazol-4-yl)thiazole-4-carboxamide] the same measures were 129 nM and 779 nM.
On to `Cn1cc(NC(=O)c2csc(-c3cnn(COP(=O)(O)O)c3)n2)c(-c2ccccn2)n1` [II-36, Sodium (4-(4-((1-methyl-3-(pyridin-2-yl)-1H-pyrazol-4-yl)carbamoyl)thiazol-2-yl)-1H-pyrazol-1-yl)methyl phosphate], for which the EC50 turned out to be 165 nM in test [1] (phosphate) and 241 nM in test [2] (phosphate).
With `O=C(Nc1cn([C@H]2C[C@@H](OCC(F)(F)F)C2)nc1-c1cccc(F)n1)c1csc(-c2cn[nH]c2)n1` [II-170, N-(3-(6-fluoropyridin-2-yl)-1-((cis)-3-(2,2,2-trifluoroethoxy)cyclobutyl)-1H-pyrazol-4-yl)-2-(1H-pyrazol-4-yl)thiazole-4-carboxamide], the concentration giving a half-maximal response (EC50) in test [1] (Homo sapiens, THP-1, 18 h) amounted to 49.1 nM; in test [2] (Homo sapiens, 18 h), 90.4 nM.
With `CCO[C@H]1C[C@@H](n2cc(NC(=O)c3csc(-c4cn[nH]c4)n3)c(-c3ncccc3F)n2)C1` [II-157, N-(1-((cis)-3-ethoxycyclobutyl)-3-(3-fluoropyridin-2-yl)-1H-pyrazol-4-yl)-2-(1H-pyrazol-4-yl)thiazole-4-carboxamide], the EC50 is 61.5 nM in test [1] (Homo sapiens, THP-1, 18 h) and 564 nM in test [2] (Homo sapiens, 18 h).
Consider `COC1CC(n2cc(NC(=O)c3ccc(-c4cn[nH]c4)o3)c(-c3ccccn3)n2)C1` (stereo not drawn) [Compound I-75, N-(1-((1s,3s)-3-methoxycyclobutyl)-3-(pyridin-2-yl)-1H-pyrazol-4-yl)-5-(1H-pyrazol-4-yl)furan-2-carboxamide formate], for which the EC50 in test [1] worked out at 102 nM; in test [2] it was 19.5 nM.
